Results taken from article PMC3814616, “BRAF inhibitors suppress apoptosis through off-target inhibition of JNK signaling” (eLife, 2013).
Where two headings read alike, the source gives them in different places.

What was measured:
RIPK1 = target: T1, RIPK1 (Homo sapiens, UniProt Q13546); test: Quantitative competitive binding assay (KINOMEscan)
T1 construct: purchased KINOMEscan (DiscoveRx), San Diego, CA

TAK1 (MAP3K7) = target: T2, TAK1 (MAP3K7) (Homo sapiens, UniProt O43318); test: as above
T2 construct: purchased KINOMEscan (DiscoveRx), San Diego, CA

NOXA = test: Western blot, UV-induced NOXA expression; type: cell-based, human; settings: NHEK, 1 μM
MAP3K3 = target: T3, MAP3K3 (Homo sapiens, UniProt Q99759); test: Quantitative competitive binding assay (KINOMEscan)
T3 construct: purchased KINOMEscan (DiscoveRx), San Diego, CA
T3 sequence (Q99759 whole entry): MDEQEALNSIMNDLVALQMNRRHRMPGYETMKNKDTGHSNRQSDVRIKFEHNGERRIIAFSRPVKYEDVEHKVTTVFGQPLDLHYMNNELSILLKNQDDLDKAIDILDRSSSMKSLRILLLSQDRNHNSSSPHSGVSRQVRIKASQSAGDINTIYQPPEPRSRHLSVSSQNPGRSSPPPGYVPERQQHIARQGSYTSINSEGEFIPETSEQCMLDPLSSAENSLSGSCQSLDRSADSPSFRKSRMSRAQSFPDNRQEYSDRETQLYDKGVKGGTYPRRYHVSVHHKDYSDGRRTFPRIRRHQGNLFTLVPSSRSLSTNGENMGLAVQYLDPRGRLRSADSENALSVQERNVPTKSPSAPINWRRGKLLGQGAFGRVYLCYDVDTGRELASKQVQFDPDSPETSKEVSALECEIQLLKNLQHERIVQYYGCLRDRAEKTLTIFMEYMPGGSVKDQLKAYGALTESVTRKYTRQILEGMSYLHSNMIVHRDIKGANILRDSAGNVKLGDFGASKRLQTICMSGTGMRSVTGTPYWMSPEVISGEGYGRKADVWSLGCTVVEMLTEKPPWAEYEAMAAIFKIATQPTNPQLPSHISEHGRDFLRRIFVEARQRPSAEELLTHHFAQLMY

MAP3K2 = target: T4, MAP3K2 (Homo sapiens, UniProt Q9Y2U5); test: as above
T4 construct: purchased KINOMEscan (DiscoveRx), San Diego, CA
T4 sequence (Q9Y2U5 1-619): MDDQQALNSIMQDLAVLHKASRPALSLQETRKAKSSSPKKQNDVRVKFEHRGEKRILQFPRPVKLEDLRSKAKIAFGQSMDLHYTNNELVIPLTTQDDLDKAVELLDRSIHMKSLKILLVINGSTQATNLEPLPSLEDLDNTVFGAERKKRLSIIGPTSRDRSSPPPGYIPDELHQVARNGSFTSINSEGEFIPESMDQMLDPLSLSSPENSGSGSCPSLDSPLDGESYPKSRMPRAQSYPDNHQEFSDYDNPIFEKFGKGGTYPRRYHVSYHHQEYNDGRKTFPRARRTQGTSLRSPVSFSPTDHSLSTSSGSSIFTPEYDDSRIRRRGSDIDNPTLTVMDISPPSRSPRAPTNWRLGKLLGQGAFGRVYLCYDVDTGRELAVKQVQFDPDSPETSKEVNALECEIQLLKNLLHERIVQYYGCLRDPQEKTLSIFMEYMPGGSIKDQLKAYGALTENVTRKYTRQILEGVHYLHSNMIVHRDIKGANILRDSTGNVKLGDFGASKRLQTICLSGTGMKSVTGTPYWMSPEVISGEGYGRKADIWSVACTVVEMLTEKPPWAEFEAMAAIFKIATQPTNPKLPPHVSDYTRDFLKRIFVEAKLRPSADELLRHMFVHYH

MAP4K4 = target: T5, MAP4K4 (Homo sapiens, UniProt O95819); design: method as in Bollag et al., 2010; settings: ref Bollag et al., 2010; read-out: Published biochemical IC50; cited from earlier work
T5 construct: purchased KINOMEscan (DiscoveRx), San Diego, CA

FGR = target: T6, FGR (Homo sapiens, UniProt P09769); test: Quantitative competitive binding assay (KINOMEscan)
T6 construct: purchased KINOMEscan (DiscoveRx), San Diego, CA
T6 sequence (P09769 whole entry): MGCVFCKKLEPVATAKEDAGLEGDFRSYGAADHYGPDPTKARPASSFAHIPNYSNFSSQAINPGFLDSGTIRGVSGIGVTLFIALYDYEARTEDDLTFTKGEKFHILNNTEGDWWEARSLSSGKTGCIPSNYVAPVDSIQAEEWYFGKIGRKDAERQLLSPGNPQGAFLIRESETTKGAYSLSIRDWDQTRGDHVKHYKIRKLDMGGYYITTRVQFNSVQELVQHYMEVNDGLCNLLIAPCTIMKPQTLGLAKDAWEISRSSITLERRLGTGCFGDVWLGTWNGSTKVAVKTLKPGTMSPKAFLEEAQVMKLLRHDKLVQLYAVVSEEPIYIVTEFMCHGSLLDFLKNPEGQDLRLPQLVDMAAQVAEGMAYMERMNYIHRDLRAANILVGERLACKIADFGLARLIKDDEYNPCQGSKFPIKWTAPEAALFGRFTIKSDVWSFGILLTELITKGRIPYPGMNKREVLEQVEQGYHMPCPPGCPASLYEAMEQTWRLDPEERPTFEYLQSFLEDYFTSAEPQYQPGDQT

JNK and p38 isoforms = test system: JNK and p38 isoforms; design: method as in Tsai et al., 2008; Bollag et al., 2010; settings: ref Tsai et al., 2008; Bollag et al., 2010; cited from earlier work
ZAK = target: T7, ZAK (Homo sapiens, UniProt Q9NYL2); test: Quantitative competitive binding assay (KINOMEscan)
T7 construct: purchased KINOMEscan (DiscoveRx), San Diego, CA
T7 sequence (Q9NYL2 whole entry): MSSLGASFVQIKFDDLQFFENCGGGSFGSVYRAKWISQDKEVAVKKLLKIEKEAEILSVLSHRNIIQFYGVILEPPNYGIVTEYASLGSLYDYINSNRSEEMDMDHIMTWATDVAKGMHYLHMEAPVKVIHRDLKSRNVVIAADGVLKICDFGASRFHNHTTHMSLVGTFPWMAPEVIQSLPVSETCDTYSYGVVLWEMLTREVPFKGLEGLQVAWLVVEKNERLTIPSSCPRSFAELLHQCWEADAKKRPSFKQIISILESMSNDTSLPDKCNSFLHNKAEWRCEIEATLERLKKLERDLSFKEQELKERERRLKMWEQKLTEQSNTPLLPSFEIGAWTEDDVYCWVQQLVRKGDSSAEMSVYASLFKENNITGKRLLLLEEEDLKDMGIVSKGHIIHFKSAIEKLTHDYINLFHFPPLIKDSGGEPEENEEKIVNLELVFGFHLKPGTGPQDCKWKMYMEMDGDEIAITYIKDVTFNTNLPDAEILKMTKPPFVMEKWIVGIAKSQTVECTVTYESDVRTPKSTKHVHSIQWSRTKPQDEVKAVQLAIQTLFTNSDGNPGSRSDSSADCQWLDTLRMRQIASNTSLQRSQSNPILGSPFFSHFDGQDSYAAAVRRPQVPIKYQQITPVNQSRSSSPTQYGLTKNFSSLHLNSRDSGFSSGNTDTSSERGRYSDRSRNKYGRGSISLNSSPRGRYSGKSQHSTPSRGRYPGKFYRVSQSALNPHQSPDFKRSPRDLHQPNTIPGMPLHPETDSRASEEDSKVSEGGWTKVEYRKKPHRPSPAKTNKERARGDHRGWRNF

MAP4K5 = target: T8, MAP4K5 (Homo sapiens, UniProt Q9Y4K4); test: as above
T8 construct: purchased KINOMEscan (DiscoveRx), San Diego, CA
T8 sequence (Q9Y4K4 whole entry): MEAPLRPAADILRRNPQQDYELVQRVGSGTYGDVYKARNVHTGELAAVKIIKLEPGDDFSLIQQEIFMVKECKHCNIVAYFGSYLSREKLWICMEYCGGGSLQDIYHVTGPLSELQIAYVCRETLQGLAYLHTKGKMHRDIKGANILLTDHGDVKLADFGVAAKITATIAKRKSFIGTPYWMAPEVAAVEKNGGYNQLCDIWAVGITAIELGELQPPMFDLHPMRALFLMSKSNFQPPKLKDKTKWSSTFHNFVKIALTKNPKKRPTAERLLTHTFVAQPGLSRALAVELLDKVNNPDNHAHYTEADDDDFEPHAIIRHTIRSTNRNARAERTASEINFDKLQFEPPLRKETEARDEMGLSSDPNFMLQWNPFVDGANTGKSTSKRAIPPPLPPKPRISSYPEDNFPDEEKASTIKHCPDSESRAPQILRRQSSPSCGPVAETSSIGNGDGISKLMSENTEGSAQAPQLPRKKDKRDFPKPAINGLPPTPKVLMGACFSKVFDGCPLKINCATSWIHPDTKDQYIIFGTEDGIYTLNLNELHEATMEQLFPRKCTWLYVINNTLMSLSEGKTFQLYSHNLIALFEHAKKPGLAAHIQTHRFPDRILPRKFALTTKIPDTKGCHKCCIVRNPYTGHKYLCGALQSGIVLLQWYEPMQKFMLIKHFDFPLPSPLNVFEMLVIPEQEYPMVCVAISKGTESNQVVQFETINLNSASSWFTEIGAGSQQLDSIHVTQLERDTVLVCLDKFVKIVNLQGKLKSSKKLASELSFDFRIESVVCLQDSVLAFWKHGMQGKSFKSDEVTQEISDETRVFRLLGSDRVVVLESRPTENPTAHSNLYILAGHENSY

MEK6 (MAP2K6) [1] = target: T9, MEK6 (MAP2K6) (Homo sapiens, UniProt P52564); test: as above
T9 construct: purchased KINOMEscan (DiscoveRx), San Diego, CA
T9 sequence (P52564 whole entry): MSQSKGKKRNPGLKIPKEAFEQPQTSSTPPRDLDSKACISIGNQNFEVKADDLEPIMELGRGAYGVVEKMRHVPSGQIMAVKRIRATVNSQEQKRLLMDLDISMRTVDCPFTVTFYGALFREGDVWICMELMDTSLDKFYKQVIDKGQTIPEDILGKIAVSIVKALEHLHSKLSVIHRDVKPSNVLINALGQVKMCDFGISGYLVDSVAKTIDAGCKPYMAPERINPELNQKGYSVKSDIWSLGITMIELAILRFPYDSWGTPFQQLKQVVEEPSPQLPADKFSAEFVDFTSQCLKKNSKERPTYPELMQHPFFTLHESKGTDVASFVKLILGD

TAOK3 = target: T10, TAOK3 (Homo sapiens, UniProt Q9H2K8); test: as above
T10 construct: purchased KINOMEscan (DiscoveRx), San Diego, CA
T10 sequence (Q9H2K8 whole entry): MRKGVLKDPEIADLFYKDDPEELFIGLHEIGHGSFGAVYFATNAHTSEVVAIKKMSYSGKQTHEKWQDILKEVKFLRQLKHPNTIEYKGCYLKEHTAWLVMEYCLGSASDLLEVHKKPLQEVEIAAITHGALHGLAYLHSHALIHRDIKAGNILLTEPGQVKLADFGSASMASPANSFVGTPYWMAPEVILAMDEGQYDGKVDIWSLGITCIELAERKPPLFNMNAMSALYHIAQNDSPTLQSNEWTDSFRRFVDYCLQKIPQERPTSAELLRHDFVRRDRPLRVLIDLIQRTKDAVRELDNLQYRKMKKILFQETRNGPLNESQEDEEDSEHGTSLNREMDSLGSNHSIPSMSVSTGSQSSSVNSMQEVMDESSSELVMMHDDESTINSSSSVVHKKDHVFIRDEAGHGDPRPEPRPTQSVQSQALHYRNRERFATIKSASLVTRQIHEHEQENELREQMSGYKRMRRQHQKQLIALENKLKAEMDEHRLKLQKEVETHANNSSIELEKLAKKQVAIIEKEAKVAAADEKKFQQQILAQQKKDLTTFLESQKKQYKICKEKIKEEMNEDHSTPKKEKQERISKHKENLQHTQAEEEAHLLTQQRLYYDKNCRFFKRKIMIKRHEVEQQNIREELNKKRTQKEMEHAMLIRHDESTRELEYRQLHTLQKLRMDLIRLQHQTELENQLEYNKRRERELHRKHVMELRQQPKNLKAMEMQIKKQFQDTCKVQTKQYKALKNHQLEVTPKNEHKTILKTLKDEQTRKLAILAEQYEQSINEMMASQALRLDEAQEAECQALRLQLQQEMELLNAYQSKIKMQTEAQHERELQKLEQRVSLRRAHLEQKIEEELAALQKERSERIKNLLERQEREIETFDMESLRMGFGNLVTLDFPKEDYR

BLK = target: T11, BLK (Homo sapiens, UniProt P51451); test: as above
T11 construct: purchased KINOMEscan (DiscoveRx), San Diego, CA
T11 sequence (P51451 whole entry): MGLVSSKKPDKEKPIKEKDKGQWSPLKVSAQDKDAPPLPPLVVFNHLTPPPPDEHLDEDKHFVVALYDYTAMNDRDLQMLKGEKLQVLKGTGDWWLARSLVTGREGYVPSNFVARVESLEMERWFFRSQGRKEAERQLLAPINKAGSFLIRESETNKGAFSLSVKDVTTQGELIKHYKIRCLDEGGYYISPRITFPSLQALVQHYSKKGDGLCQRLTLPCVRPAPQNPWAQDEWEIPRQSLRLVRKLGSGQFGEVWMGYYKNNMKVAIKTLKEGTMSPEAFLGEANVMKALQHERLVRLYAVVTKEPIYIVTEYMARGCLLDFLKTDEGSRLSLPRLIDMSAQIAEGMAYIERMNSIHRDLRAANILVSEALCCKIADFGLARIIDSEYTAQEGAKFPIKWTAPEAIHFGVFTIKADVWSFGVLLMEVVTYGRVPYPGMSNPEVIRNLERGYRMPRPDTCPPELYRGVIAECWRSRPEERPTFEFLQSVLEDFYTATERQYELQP

MEK6 (MAP2K6) [2] = target: T9, MEK6 (MAP2K6); design: method as in Bollag et al., 2010; settings: ref Bollag et al., 2010; read-out: Published biochemical IC50; cited from earlier work
MLK1 (MAP3K9) = target: T12, MLK1 (MAP3K9) (Homo sapiens, UniProt P80192); settings: ref Bollag et al., 2010; read-out: Published biochemical IC50; cited from earlier work
T12 construct: purchased KINOMEscan (DiscoveRx), San Diego, CA

MINK (MINK1) = target: T13, MINK (MINK1) (Homo sapiens, UniProt Q8N4C8); test: Quantitative competitive binding assay (KINOMEscan)
T13 construct: purchased KINOMEscan (DiscoveRx), San Diego, CA

MEK3 (MAP2K3) = target: T14, MEK3 (MAP2K3) (Homo sapiens, UniProt P46734); test: as above
T14 construct: purchased KINOMEscan (DiscoveRx), San Diego, CA
T14 sequence (P46734 whole entry): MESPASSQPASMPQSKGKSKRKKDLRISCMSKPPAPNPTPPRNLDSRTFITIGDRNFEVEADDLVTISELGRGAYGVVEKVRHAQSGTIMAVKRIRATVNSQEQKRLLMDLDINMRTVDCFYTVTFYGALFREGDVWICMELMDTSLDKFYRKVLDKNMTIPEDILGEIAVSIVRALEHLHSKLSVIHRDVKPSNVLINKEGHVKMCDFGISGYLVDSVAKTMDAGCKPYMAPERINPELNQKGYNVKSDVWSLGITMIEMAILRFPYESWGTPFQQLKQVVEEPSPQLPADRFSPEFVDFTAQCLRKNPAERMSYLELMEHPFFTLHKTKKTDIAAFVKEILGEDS

BRK (PTK6) = BRK (PTK6) (Homo sapiens, UniProt Q13882); test: as above
[3] = read-out: Percent control (50 nM)
[4] = read-out: Percent control (200 nM)
[5] = read-out: Percent control (1000 nM)
[6] = read-out: Percent control (10 μM)
[7] = estimated Kd, averaged pointwise estimates, transformed Hill equation, read-out: Calculated estimate of IC50

CCCS(=O)(=O)Nc1ccc(F)c(C(=O)c2c[nH]c3ncc(-c4ccc(Cl)cc4)cc23)c1F [vemurafenib]
remaining binding at 0.05 µM (RIPK1; [3]): 92% | remaining binding at 0.2 µM (RIPK1; [4]): 100% | remaining binding at 1 µM (RIPK1; [5]): 99% | remaining binding at 10 µM (RIPK1; [6]): 73% | remaining binding at 0.05 µM (TAK1 (MAP3K7); [3]): 93% | remaining binding at 0.2 µM (TAK1 (MAP3K7); [4]): 88% | remaining binding at 1 µM (TAK1 (MAP3K7); [5]): 86% | remaining binding at 10 µM (TAK1 (MAP3K7); [6]): 88% | NOXA induction at 24 hr post-UV irradiation (NOXA): diminished | remaining binding at 0.05 µM (MAP3K3; [3]): 87% | remaining binding at 0.2 µM (MAP3K3; [4]): 97% | remaining binding at 1 µM (MAP3K3; [5]): 100% | remaining binding at 10 µM (MAP3K3; [6]): 94% | remaining binding at 0.05 µM (MAP3K2; [3]): 91% | remaining binding at 0.2 µM (MAP3K2; [4]): 91% | remaining binding at 1 µM (MAP3K2; [5]): 89% | remaining binding at 10 µM (MAP3K2; [6]): 83% | IC50 (MAP4K4): > 1 µM | IC50 (FGR; [7]): 0.149 µM | remaining binding at 0.05 µM (FGR; [3]): 65% | remaining binding at 0.2 µM (FGR; [4]): 49% | remaining binding at 1 µM (FGR; [5]): 13% | remaining binding at 10 µM (FGR; [6]): 1.6% | direct inhibition of JNK and p38 isoforms (JNK and p38 isoforms): not significantly inhibited | IC50 (ZAK; [7]): < 0.05 µM | remaining binding at 0.05 µM (ZAK; [3]): 9% | remaining binding at 0.2 µM (ZAK; [4]): 1.8% | remaining binding at 1 µM (ZAK; [5]): 0.25% | remaining binding at 10 µM (ZAK; [6]): 0.05% | IC50 (MAP4K5; [7]): 0.0582 µM | remaining binding at 0.05 µM (MAP4K5; [3]): 62% | remaining binding at 0.2 µM (MAP4K5; [4]): 33% | remaining binding at 1 µM (MAP4K5; [5]): 4.1% | remaining binding at 10 µM (MAP4K5; [6]): 0.1% | IC50 (MEK6 (MAP2K6) [1]; [7]): 4.08 µM | remaining binding at 0.05 µM (MEK6 (MAP2K6) [1]; [3]): 91% | remaining binding at 0.2 µM (MEK6 (MAP2K6) [1]; [4]): 97% | remaining binding at 1 µM (MEK6 (MAP2K6) [1]; [5]): 87% | remaining binding at 10 µM (MEK6 (MAP2K6) [1]; [6]): 21% | IC50 (TAOK3; [7]): 15.5 µM | remaining binding at 0.05 µM (TAOK3; [3]): 92% | remaining binding at 0.2 µM (TAOK3; [4]): 98% | remaining binding at 1 µM (TAOK3; [5]): 92% | remaining binding at 10 µM (TAOK3; [6]): 80% | IC50 (BLK; [7]): 0.518 µM | remaining binding at 0.05 µM (BLK; [3]): 96% | remaining binding at 0.2 µM (BLK; [4]): 66% | remaining binding at 1 µM (BLK; [5]): 30% | remaining binding at 10 µM (BLK; [6]): 0.55% | IC50 (MEK6 (MAP2K6) [2]): > 1 µM | IC50 (MLK1 (MAP3K9)): > 1 µM | IC50 (MINK (MINK1); [7]): 14.8 µM | remaining binding at 0.05 µM (MINK (MINK1); [3]): 100% | remaining binding at 0.2 µM (MINK (MINK1); [4]): 100% | remaining binding at 1 µM (MINK (MINK1); [5]): 91% | remaining binding at 10 µM (MINK (MINK1); [6]): 66% | remaining binding at 0.05 µM (MEK3 (MAP2K3); [3]): 100% | remaining binding at 0.2 µM (MEK3 (MAP2K3); [4]): 96% | remaining binding at 1 µM (MEK3 (MAP2K3); [5]): 98% | remaining binding at 10 µM (MEK3 (MAP2K3); [6]): 54% | IC50 (BRK (PTK6); [7]): 0.068 µM | remaining binding at 0.05 µM (BRK (PTK6); [3]): 63% | remaining binding at 0.2 µM (BRK (PTK6); [4]): 28% | remaining binding at 1 µM (BRK (PTK6); [5]): 6.9% | remaining binding at 10 µM (BRK (PTK6); [6]): 0.35%
